From patent publication US9409966B2, “Glucagon-like peptide-1 derivatives and their pharmaceutical use” (priority 2007, dated 2016)
*1 amine or outer side, *2 acyl side, *3 side chain or, on linkers, in order; H or OH if unused. Where a SMILES comes first, the peptide text is derived from it. Side-chain parts run from the residue outwards. [ ]: non-standard residue; d: D form. The star is where a group is joined. X1 = O=C(CCCCCCCCCCCCCCCc1nnn[nH]1)NS(=O)(=O)CCCC(=O)*; γGlu = O=C(O)[C@H](CCC(=O)[*:2])N[*:1]; 12Ado = NCCCCCCCCCCCC(=O)O; AEEA = NCCOCCOCC(=O)O; Aib = CC(C)(N)C(=O)O

Assays:
[1] = biological target: human serum albumin (HSA) (Homo sapiens, UniProt P02768); assay: Albumin binding affinity, competition scintillation proximity assay (SPA)
Sequence of human serum albumin (HSA) (P02768 25-609): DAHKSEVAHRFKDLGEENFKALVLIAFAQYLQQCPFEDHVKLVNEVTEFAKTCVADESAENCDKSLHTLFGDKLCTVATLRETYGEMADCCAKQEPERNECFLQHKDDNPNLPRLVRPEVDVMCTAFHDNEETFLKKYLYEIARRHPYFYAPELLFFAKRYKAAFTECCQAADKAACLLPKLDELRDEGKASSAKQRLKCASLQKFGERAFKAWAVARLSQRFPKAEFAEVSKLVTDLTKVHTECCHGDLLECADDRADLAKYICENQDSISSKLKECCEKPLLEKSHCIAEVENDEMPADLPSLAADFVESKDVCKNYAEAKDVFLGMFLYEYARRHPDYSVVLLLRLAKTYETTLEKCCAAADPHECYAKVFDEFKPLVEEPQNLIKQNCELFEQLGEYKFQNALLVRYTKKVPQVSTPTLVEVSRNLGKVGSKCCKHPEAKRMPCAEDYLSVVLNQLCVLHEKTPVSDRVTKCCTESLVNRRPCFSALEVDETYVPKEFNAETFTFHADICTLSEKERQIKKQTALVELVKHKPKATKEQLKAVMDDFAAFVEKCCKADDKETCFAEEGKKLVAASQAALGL
Experimental: Streptavidin-SPA beads (GE Healthcare RPNQ0009) were incubated with biotinylated HSA for 5 hours. The beads were washed with buffer to remove unbound HSA. […] After 20 hours of gentle rocking at room temperature the plates were centrifuged and counted on a TopCounter.

human GLP-1 receptor = biological target: T1, human GLP-1 receptor (Homo sapiens, UniProt P43220); assay: Stimulation of cAMP formation in a cell line expressing the cloned human GLP-1 receptor; format: biochemical; details: cAMP production, purified plasma membranes from BHK467-12A (tk-ts13), AlphaScreen cAMP Assay Kit; read-out: Potency [EC50/nM]
T1 construct: expressed in transfected cells; host or cells: BHK467-12A (tk-ts13) baby hamster kidney cells; purified plasma membranes
T1 sequence (P43220 24-463): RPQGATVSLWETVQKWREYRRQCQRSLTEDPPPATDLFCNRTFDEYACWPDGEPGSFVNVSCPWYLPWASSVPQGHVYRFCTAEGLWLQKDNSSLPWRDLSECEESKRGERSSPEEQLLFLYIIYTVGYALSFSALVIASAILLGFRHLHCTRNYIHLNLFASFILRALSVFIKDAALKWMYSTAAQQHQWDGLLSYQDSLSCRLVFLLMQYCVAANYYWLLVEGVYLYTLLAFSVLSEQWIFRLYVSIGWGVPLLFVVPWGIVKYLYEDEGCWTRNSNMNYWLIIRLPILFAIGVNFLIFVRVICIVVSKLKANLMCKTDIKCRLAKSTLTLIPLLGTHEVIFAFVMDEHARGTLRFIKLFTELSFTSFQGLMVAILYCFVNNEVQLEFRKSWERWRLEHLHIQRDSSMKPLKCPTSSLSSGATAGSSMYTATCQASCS

| EC50 [1] [nM] | EC50 (human GLP-1 receptor) [nM] | Compound |
| --- | --- | --- |
| 800 to 1500 | 0.5 | CC[C@H](C)[C@H](NC(=O)[C@H](Cc1ccccc1)NC(=O)[C@H](CCC(=O)O)NC(=O)[C@H](CCCNC(=N)N)NC(=O)[C@H](C)NC(=O)[C@H](C)NC(=O)[C@H](CCC(N)=O)NC(=O)[C@H](CCC(=O)O)NC(=O)[C@H](CCC(=O)O)NC(=O)[C@H](CC(C)C)NC(=O)[C@H](Cc1ccc(O)cc1)NC(=O)[C@H](CO)NC(=O)[C@H](CO)NC(=O)[C@@H](NC(=O)[C@H](CC(=O)O)NC(=O)[C@H](CO)NC(=O)[C@@H](NC(=O)[C@H](Cc1ccccc1)NC(=O)[C@@H](NC(=O)CNC(=O)[C@H](CCC(=O)O)NC(=O)[C@H](C)NC(=O)CCc1c[nH]cn1)[C@@H](C)O)[C@@H](C)O)C(C)C)C(=O)N[C@@H](C)C(=O)N[C@@H](Cc1c[nH]c2ccccc12)C(=O)N[C@@H](CC(C)C)C(=O)N[C@H](C(=O)N[C@@H](CCCNC(=N)N)C(=O)NCC(=O)N[C@@H](CCCNC(=N)N)C(=O)N[C@@H](CCCCNC(=O)COCCOCCNC(=O)COCCOCCNC(=O)CC[C@H](NC(=O)[C@H]1CC[C@H](CNC(=O)CCCCCCCCCCCCCCCCCCC(=O)O)CC1)C(=O)O)C(=O)O)C(C)C [Example 9, N-epsilon37-[2-(2-{2-[2-(2-{2-[(S)-4-Carboxy-4-({trans-4-[(19-carboxy-nonadecanoylamino)methyl]cyclohexanecarbonyl}amino)butyrylamino]ethoxy}ethoxy)acetylamino]ethoxy}ethoxy)acetyl][DesaminoHis7,Glu22,Arg26,Arg34,Lys37]GLP-1-(7-37)] |
| 1 to 100 | 0.61 | CC[C@H](C)[C@H](NC(=O)[C@H](Cc1ccccc1)NC(=O)[C@H](CCC(=O)O)NC(=O)[C@H](CCCNC(=N)N)NC(=O)[C@H](C)NC(=O)[C@H](C)NC(=O)[C@H](CCC(N)=O)NC(=O)[C@H](CCC(=O)O)NC(=O)[C@H](CCC(=O)O)NC(=O)[C@H](CCCCNC(=O)COCCOCCNC(=O)CC[C@H](NC(=O)CC[C@H](NC(=O)CCCCCCCCCCCNC(=O)CCCS(=O)(=O)NC(=O)CCCCCCCCCCCCCCCc1nnn[nH]1)C(=O)O)C(=O)O)NC(=O)[C@H](Cc1ccc(O)cc1)NC(=O)[C@H](CO)NC(=O)[C@H](CO)NC(=O)[C@@H](NC(=O)[C@H](CC(=O)O)NC(=O)[C@H](CO)NC(=O)[C@@H](NC(=O)[C@H](Cc1ccccc1)NC(=O)[C@@H](NC(=O)CNC(=O)[C@H](CCC(=O)O)NC(=O)C(C)(C)NC(=O)[C@@H](N)Cc1c[nH]cn1)[C@@H](C)O)[C@@H](C)O)C(C)C)C(=O)N[C@@H](CCC(=O)O)C(=O)N[C@@H](Cc1c[nH]c2ccccc12)C(=O)N[C@@H](CC(C)C)C(=O)N[C@H](C(=O)N[C@@H](CCCCN)C(=O)NCC(=O)N[C@@H](CCCNC(=N)N)C(=O)N1CCC[C@H]1C(N)=O)C(C)C [Example 11, N-epsilon20-[2-(2-{2-[(S)-4-Carboxy-4-((S)-4-carboxy-4-{12-[4-(16-(1H-tetrazol-5-yl)hexadecanoylsulfamoyl)butyrylamino]dodecanoylamino}butyrylamino)butyrylamino]ethoxy}ethoxy)acetyl][Aib8,Lys20,Glu22,Arg26,Glu30,Pro37]GLP-1-(7-37)amide] (H-H[Aib]EGTFTSDVSSYK([AEEA-γGlu-γGlu-12Ado-X1])EEQAAREFIEWLVKGRP-NH2) |
